According to patent publication US20240148709A1, “METHODS OF TREATING EYE PAIN AND EYE DISORDERS” (Aisa Pharma, Inc., priority 2022, published 2024):

Tested on: participants with SSc-RP
Assay: Scleroderma Health Assessment Questionnaire (SHAQ), Phase 2a study Part A
Type: in vivo, human
Experimental: Part A—double-blind, placebo-controlled, parallel-group, dose selection, will assess the safety and efficacy of two doses of cilnidipine (10 mg and 20 mg), alone and in combination with tadalafil. A total of 36 participants will be randomized to one of six prespecified treatment arms. Refer to FIG. 1 for treatment arms in Part A of the study. Dosing last for 12 (±2) days in which participants will self-administer daily doses of assigned treatment in the morning. Each participant will take one capsule and one tablet to blind the active therapy being received.
The standard, validated, patient reported outcome measures tool for SSc patients, the SHAQ, will be collected at the time points specified in the study schedules (FIG. 2 and FIGS. 3A and 3B) to assess the participant's quality of life. The SHAQ includes a Raynaud's VAS that will also be reported separately.
Results: Patients in the study were administered the Scleroderma Health Assessment Questionnaire (SHAQ) at the time of study entry and during clinic visits following the treatment period. The study is a two-part, parallel arm design, prospective, double-blind, randomized study conducted in Australia (Flinders Medical Center). 27 patients were randomized into the first phase of the study, following which a DSMB meeting was held, which reviewed data on the primary study endpoint and key Raynaud's secondary endpoints. Data on the SHAQ was not available for the DSMB to review. The mITT population, in which any data was available post treatment was 24 patients was the analysis population for this first part of the study. The second part (i.e., part B) of the study will randomize 36 patients in a double blind, randomized, prospective, placebo controlled, crossover study. In the first part (i.e., Part A) of the study for which data is presented, patients were randomized into 6 groups, cilnidipine at two doses (10 and 20 mg) alone and in combination with tadalafil 5 mg, tadalafil 5 mg alone, and placebo. […] The DSMB recommended that the study proceed into its double blind prospective cross overpowered second phase and compare cilnidipine 20 mg alone to placebo.

[1] = cilnidipine 10 mg and/or tadalafil 5 mg arms
[2] = cilnidipine 20 mg arms (alone or + tadalafil 5 mg)

COCCOC(=O)C1=C(C)NC(C)=C(C(=O)OC/C=C/c2ccccc2)C1c1cccc([N+](=O)[O-])c1 (stereo not shown) [Cilnidipine, cilnidipine]
SHAQ Visual Analog Scale-Raynaud's, In Clinic Visit (Day 12), Mean (SD) [1]: 1.925 (1.9207)
SHAQ Visual Analog Scale-Raynaud's, In Clinic Visit (Day 12), Median [1]: 1.700
SHAQ Visual Analog Scale-Raynaud's, In Clinic Visit (Day 12), Min [1]: 0.00
SHAQ Visual Analog Scale-Raynaud's, In Clinic Visit (Day 12), Q1 [1]: 0.400
SHAQ Visual Analog Scale-Raynaud's, In Clinic Visit (Day 12), Q3 [1]: 3.450
SHAQ Visual Analog Scale-Raynaud's, Percent Change from Baseline, Max [1]: 136.4%
SHAQ Visual Analog Scale-Raynaud's, Percent Change from Baseline, Mean (SD) [1]: 11.36 (118.770) %
SHAQ Visual Analog Scale-Raynaud's, Percent Change from Baseline, Median [1]: −2.27%
SHAQ Visual Analog Scale-Raynaud's, Percent Change from Baseline, Min [1]: −100.0%
SHAQ Visual Analog Scale-Raynaud's, Percent Change from Baseline, Q1 [1]: −100.00%
SHAQ alternative disability index, Change from Baseline, Max [1]: 0.38
SHAQ alternative disability index, Change from Baseline, Mean (SD) [1]: 0.063 (0.2165)
SHAQ alternative disability index, Change from Baseline, Median [1]: 0.000
SHAQ alternative disability index, Change from Baseline, Min [1]: −0.13
SHAQ alternative disability index, Change from Baseline, Q1 [1]: −0.063
SHAQ alternative disability index, Change from Baseline, Q3 [1]: 0.188
SHAQ alternative disability index, In Clinic Visit (Day 12), Max [1]: 1.25
SHAQ alternative disability index, In Clinic Visit (Day 12), Mean (SD) [1]: 0.563 (0.6575)
SHAQ alternative disability index, In Clinic Visit (Day 12), Median [1]: 0.500
SHAQ alternative disability index, In Clinic Visit (Day 12), Min [1]: 0.00
SHAQ alternative disability index, In Clinic Visit (Day 12), Q1 [1]: 0.000
SHAQ alternative disability index, In Clinic Visit (Day 12), Q3 [1]: 1.125
SHAQ alternative disability index, Percent Change from Baseline, Max [1]: 42.9%
SHAQ alternative disability index, Percent Change from Baseline, Mean (SD) [1]: 15.87 (38.161) %
SHAQ alternative disability index, Percent Change from Baseline, Median [1]: 15.87%
SHAQ alternative disability index, Percent Change from Baseline, Min [1]: −11.1%
SHAQ alternative disability index, Percent Change from Baseline, Q1 [1]: −11.11%
SHAQ alternative disability index, Percent Change from Baseline, Q3 [1]: 42.86%
SHAQ Finger Ulcers, Change from Baseline, Max [2]: 0.40
SHAQ Finger Ulcers, Change from Baseline, Mean (SD) [2]: −0.933 (1.9732)
SHAQ Finger Ulcers, Change from Baseline, Median [2]: 0.000
SHAQ Finger Ulcers, Change from Baseline, Min [2]: −3.20
SHAQ Finger Ulcers, Change from Baseline, Q1 [2]: −3.200
SHAQ Finger Ulcers, Change from Baseline, Q3 [2]: 0.400
SHAQ Finger Ulcers, In Clinic Visit (Day 12), Max [2]: 1.90
SHAQ Finger Ulcers, In Clinic Visit (Day 12), Mean (SD) [2]: 0.867 (0.9609)
SHAQ Finger Ulcers, In Clinic Visit (Day 12), Median [2]: 0.700
SHAQ Finger Ulcers, In Clinic Visit (Day 12), Min [2]: 0.00
SHAQ Finger Ulcers, In Clinic Visit (Day 12), Q1 [2]: 0.000
SHAQ Finger Ulcers, In Clinic Visit (Day 12), Q3 [2]: 1.900
SHAQ Finger Ulcers, Percent Change from Baseline, Max [2]: 133.3%
SHAQ Finger Ulcers, Percent Change from Baseline, Mean (SD) [2]: 35.29 (138.648) %
SHAQ Finger Ulcers, Percent Change from Baseline, Median [2]: 35.29%
SHAQ Finger Ulcers, Percent Change from Baseline, Min [2]: −62.7%
SHAQ Finger Ulcers, Percent Change from Baseline, Q1 [2]: −62.75%
SHAQ Finger Ulcers, Percent Change from Baseline, Q3 [2]: 133.33%
SHAQ Overall Change in Severity, Change from Baseline, Max [2]: −1.50
SHAQ Overall Change in Severity, Change from Baseline, Median [2]: −1.600
SHAQ Overall Change in Severity, Change from Baseline, Min [2]: −1.80
SHAQ Overall Change in Severity, Change from Baseline, Q1 [2]: −1.800
SHAQ Overall Change in Severity, Change from Baseline, Q3 [2]: −1.500
SHAQ Overall Change in Severity, In Clinic Visit (Day 12), Max [2]: 1.40
SHAQ Overall Change in Severity, In Clinic Visit (Day 12), Mean (SD) [2]: 1.033 (0.4726)
SHAQ Overall Change in Severity, In Clinic Visit (Day 12), Median [2]: 1.200
SHAQ Overall Change in Severity, In Clinic Visit (Day 12), Min [2]: 0.50
SHAQ Overall Change in Severity, In Clinic Visit (Day 12), Q1 [2]: 0.500
SHAQ Overall Change in Severity, In Clinic Visit (Day 12), Q3 [2]: 1.400
SHAQ Overall Change in Severity, Percent Change from Baseline, Max [2]: −51.7%
SHAQ Overall Change in Severity, Percent Change from Baseline, Mean (SD) [2]: −62.64 (12.445) %
SHAQ Overall Change in Severity, Percent Change from Baseline, Median [2]: −60.00%
SHAQ Overall Change in Severity, Percent Change from Baseline, Min [2]: −76.2%
SHAQ Overall Change in Severity, Percent Change from Baseline, Q1 [2]: −76.19%
SHAQ Overall Change in Severity, Percent Change from Baseline, Q3 [2]: −51.72%
SHAQ Standard disability index, Change from Baseline, Max [2]: 0.00
SHAQ Standard disability index, Change from Baseline, Mean (SD) [2]: −0.125 (0.1250)
SHAQ Standard disability index, Change from Baseline, Median [2]: −0.125
SHAQ Standard disability index, Change from Baseline, Min [2]: −0.25
SHAQ Standard disability index, Change from Baseline, Q1 [2]: −0.250
SHAQ Standard disability index, Change from Baseline, Q3 [2]: 0.000
SHAQ Standard disability index, In Clinic Visit (Day 12), Max [2]: 0.25
SHAQ Standard disability index, In Clinic Visit (Day 12), Mean (SD) [2]: 0.125 (0.1250)
SHAQ Standard disability index, In Clinic Visit (Day 12), Median [2]: 0.125
SHAQ Standard disability index, In Clinic Visit (Day 12), Min [2]: 0.00
SHAQ Standard disability index, In Clinic Visit (Day 12), Q1 [2]: 0.000
SHAQ Standard disability index, In Clinic Visit (Day 12), Q3 [2]: 0.250
SHAQ Standard disability index, Percent Change from Baseline, Max [2]: −33.3%
SHAQ Standard disability index, Percent Change from Baseline, Mean (SD) [2]: −50.00 (23.570) %
SHAQ Standard disability index, Percent Change from Baseline, Median [2]: −50.00%
SHAQ Standard disability index, Percent Change from Baseline, Min [2]: −66.7%
SHAQ Standard disability index, Percent Change from Baseline, Q1 [2]: −66.67%
SHAQ Standard disability index, Percent Change from Baseline, Q3 [2]: −33.33%
SHAQ Visual Analog Scale-Breathing Problems, Change from Baseline, Max [2]: 0.30
SHAQ Visual Analog Scale-Breathing Problems, Change from Baseline, Median [2]: −0.800
SHAQ Visual Analog Scale-Breathing Problems, Change from Baseline, Min [2]: −2.00
SHAQ Visual Analog Scale-Breathing Problems, Change from Baseline, Q1 [2]: −2.000
